System: IL-1b
Test: Mouse BMDM IL-1b Assay
Format: cell-based
Details: Macrophage; mouse bone marrow derived macrophages (C57BL6); 200 ng/mL LPS 3 h, compound 30 min, 5 mM ATP 45 min; IL-1b ELISA of supernatant
Summary of the method: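 C57BL6 bone marrow macrophages, differentiated 7 days with 20 ng/mL MCSF, were primed with 200 ng/mL LPS for 3 h at 37° C, given compound for 30 min, then 5 mM ATP for 45 min. Supernatant IL-1b was measured by ELISA against standards; IC50 fitted by Levenberg-Marquardt.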

| Compound | IC50 [nM] |
| --- | --- |
| CC(C)c1ccc(F)c(C(C)C)c1NC(=O)NS(=O)(=O)c1cc2c(o1)CCCCC2(C)O (centres unmarked) [Compound 110, N-((3-fluoro-2,6-diisopropylphenyl)carbamoyl)-4-hydroxy-4-methyl-5,6,7,8-tetrahydro-4H-cyclohepta[b]furan-2-sulfonamide] | 100 to 1000 |
| CC(C)c1ccc(Cl)c(C(C)C)c1NC(=O)NS(=O)(=O)c1cc2c(o1)CCCCC2(C)O (centres unmarked) [Compound 111, N-((3-chloro-2,6-diisopropylphenyl)carbamoyl)-4-hydroxy-4-methyl-5,6,7,8-tetrahydro-4H-cyclohepta[b]furan-2-sulfonamide] | 100 to 1000 |
| CN1CCc2oc(S(=O)(=O)NC(=O)Nc3c4c(cc5c3CCC5)CCC4)cc2C1=O [Compound 112, N-((1,2,3,5,6,7-hexahydro-s-indacen-4-yl)carbamoyl)-5-methyl-4-oxo-4,5,6,7-tetrahydrofuro[3,2-c]pyridine-2-sulfonamide] | 100 to 1000 |
| CN1CCc2sc(S(=O)(=O)NC(=O)Nc3c4c(cc5c3CCC5)CCC4)cc2C1 [Compound 113, N-((1,2,3,5,6,7-hexahydro-s-indacen-4-yl)carbamoyl)-5-methyl-4,5,6,7-tetrahydrothieno[3,2-c]pyridine-2-sulfonamide] | < 100 |
| CN1CCc2sc(S(=O)(=O)NC(=O)Nc3c4c(cc5c3CCC5)CCC4)cc2C1=O [Compound 114, N-((1,2,3,5,6,7-hexahydro-s-indacen-4-yl)carbamoyl)-5-methyl-4-oxo-4,5,6,7-tetrahydrothieno[3,2-c]pyridine-2-sulfonamide] | 100 to 1000 |
| CN1CCc2oc(S(=O)(=O)NC(=O)Nc3c4c(cc5c3CCC5)CCC4)cc2C1 [Compound 115, N-((1,2,3,5,6,7-hexahydro-s-indacen-4-yl)carbamoyl)-5-methyl-4,5,6,7-tetrahydrofuro[3,2-c]pyridine-2-sulfonamide] | < 100 |
| O=C(Nc1c2c(c(F)c3c1CCC3)CCC2)NS(=O)(=O)c1cc2c(o1)CCCCC2O (centres unmarked) [Compound 116, N-((8-fluoro-1,2,3,5,6,7-hexahydro-s-indacen-4-yl)carbamoyl)-4-hydroxy-5,6,7,8-tetrahydro-4H-cyclohepta[b]furan-2-sulfonamide] | < 100 |
| O=C(Nc1c2c(c(Cl)c3c1CCC3)CCC2)NS(=O)(=O)c1cc2c(o1)CCCCC2O (centres unmarked) [Compound 117, N-((8-chloro-1,2,3,5,6,7-hexahydro-s-indacen-4-yl)carbamoyl)-4-hydroxy-5,6,7,8-tetrahydro-4H-cyclohepta[b]furan-2-sulfonamide] | < 100 |
| O=C(Nc1c2c(c(Br)c3c1CCC3)CCC2)NS(=O)(=O)c1cc2c(o1)CCCCC2O (centres unmarked) [Compound 118, N-((8-bromo-1,2,3,5,6,7-hexahydro-s-indacen-4-yl)carbamoyl)-4-hydroxy-5,6,7,8-tetrahydro-4H-cyclohepta[b]furan-2-sulfonamide] | < 100 |
| CC(C)c1ccc(F)c(C(C)C)c1NC(=O)NS(=O)(=O)c1cc2c(o1)CCCCC2O (centres unmarked) [Compound 119, N-((3-fluoro-2,6-diisopropylphenyl)carbamoyl)-4-hydroxy-5,6,7,8-tetrahydro-4H-cyclohepta[b]furan-2-sulfonamide] | 100 to 1000 |
| CC(C)c1ccc(Cl)c(C(C)C)c1NC(=O)NS(=O)(=O)c1cc2c(o1)CCCCC2O (centres unmarked) [Compound 120, N-((3-chloro-2,6-diisopropylphenyl)carbamoyl)-4-hydroxy-5,6,7,8-tetrahydro-4H-cyclohepta[b]furan-2-sulfonamide] | 100 to 1000 |
| CC(C)c1cc(F)cc(C(C)C)c1NC(=O)NS(=O)(=O)c1cc2c(o1)CCCCC2(C)O (centres unmarked) [Compound 121, N-((4-fluoro-2,6-diisopropylphenyl)carbamoyl)-4-hydroxy-4-methyl-5,6,7,8-tetrahydro-4H-cyclohepta[b]furan-2-sulfonamide] | 100 to 1000 |
| CC(C)c1cc(Cl)cc(C(C)C)c1NC(=O)NS(=O)(=O)c1cc2c(o1)CCCCC2(C)O (centres unmarked) [Compound 122, N-((4-chloro-2,6-diisopropylphenyl)carbamoyl)-4-hydroxy-4-methyl-5,6,7,8-tetrahydro-4H-cyclohepta[b]furan-2-sulfonamide] | < 100 |
| CC1(O)CCCc2sc(S(=O)(=O)NC(=O)Nc3c4c(cc5c3CCC5)CCC4)cc21 (centres unmarked) [Compound 123, N-((1,2,3,5,6,7-hexahydro-s-indacen-4-yl)carbamoyl)-4-hydroxy-4-methyl-4,5,6,7-tetrahydrobenzo[b]thiophene-2-sulfonamide] | < 100 |
| O=C(Nc1c2c(cc3c1CCC3)CCC2)NS(=O)(=O)c1cc2c(s1)CCCC2O (centres unmarked) [Compound 124, N-((1,2,3,5,6,7-hexahydro-s-indacen-4-yl)carbamoyl)-4-hydroxy-4,5,6,7-tetrahydrobenzo[b]thiophene-2-sulfonamide] | < 100 |
| O=C(Nc1c2c(cc3c1CCC3)CCC2)NS(=O)(=O)c1cc2c(s1)CCC/C2=N/O [Compound 125, (Z)-N-((1,2,3,5,6,7-hexahydro-s-indacen-4-yl)carbamoyl)-4-(hydroxyimino)-4,5,6,7-tetrahydrobenzo[b]thiophene-2-sulfonamide] | < 100 |
| O=C(O)CCC1(O)CCCc2oc(S(=O)(=O)NC(=O)Nc3c4c(cc5c3CCC5)CCC4)cc21 (centres unmarked) [Compound 126, 3-(2-(N-((1,2,3,5,6,7-hexahydro-s-indacen-4-yl)carbamoyl)sulfamoyl)-4-hydroxy-4,5,6,7-tetrahydrobenzofuran-4-yl)propanoic acid] | 100 to 1000 |

From patent US12466800B2, “N-((1,2,3,5,6,7-hexahydro-S-indacen-4-yl)carbamoyl)-4, 5, 6, 7-tetrahydrobenzofuran-2-sulfonamide derivatives and related compounds as NLPR3 modulators for the treatment of multiple sclerosis (MS)” (Zomagen Biosciences Ltd, priority 2019, dated 2025)
